Test results published in patent publication US20190203240A1, “METHODS FOR THE PRODUCTION OF RHAMNOSYLATED FLAVONOIDS” (Universitaet Hamburg, priority 2016, published 2019).

How the values were obtained:
Type in all cases: cell-based
NF-κB = NF-κB activity in NIH3T3-KBF-Luc cells stimulated with TNFα (luciferase); settings: +30 ng/ml TNFα
Procedure: NIH3T3-KBF-Luc cells were stably transfected with the KBF-Luc plasmid (Sancho (2003) Mol Pharmacol 63:429-438), which contains three copies of NF-κB binding site (from major histocompatibility complex promoter), fused to a minimal simian virus 40 promoter driving the luciferase gene. Cells (1×10^4 for NIH3T3-KBF-Luc) were seeded the day before the assay on 96-well plate. Then the cells were treated with the test substances for 15 min and then stimulated with 30 ng/ml of TNFα. After 6 h, the cells were washed twice with PBS and lysed in 50 μl lysis buffer containing 25 mM Tris-phosphate (pH 7.8), 8 mM MgCl2, 1 mM DTT, 1% Triton X-100, and 7% glycerol during 15 min at RT in a horizontal shaker. Luciferase activity was measured using a GloMax 96 microplate luminometer (Promega) following the instructions of the luciferase assay kit (Promega, Madison, Wis., USA). […] The experiments for each concentration of the test items were done in triplicate wells.

STAT3 = STAT3 activity in HeLa-STAT3-luc cells stimulated with IFN-γ (luciferase); settings: +IFNγ 25 U/ml
Procedure: HeLa-STAT3-luc cells were stably transfected with the plasmid 4×M67 pTATA TK-Luc. Cells (20×10^3 cells/ml) were seeded 96-well plate the day before the assay. Then the cells were treated with the test substances for […] and then stimulated with IFN-γ 25 IU/ml. After 6 h, the cells were washed twice with PBS and lysed in […] lysis buffer containing 25 mM Tris-phosphate (pH 7.8), 8 mM MgCl2, 1 mM DTT, 1% Triton X-100, and 7% glycerol during […] at RT in a horizontal shaker. Luciferase activity was measured using GloMax 96 microplate luminometer (Promega) following the instructions of the luciferase assay kit (Promega, Madison, Wis., USA). […] The experiments for each concentration of the test items were done in triplicate wells.

HaCaT cells = assay: Glucose uptake (2-NBDG) in HaCaT keratinocytes; settings: +2NBDG 50 μM, 24 h
Procedure: HaCaT cells (5×10^4) were seeded in 96-well black plates and incubated for 24 h. Then, medium was removed and the cells cultivated in OptiMEM, labeled with 50 μM 2-NBDG (2-[N-(7-nitrobenz-2-oxa-1,3-diazol-4-yl) amino]-2-deoxy-D-glucose and treated with the test substances or the positive control, Rosiglitazone, for 24 h. Medium was removed and the wells were carefully washed with PBS and incubated in PBS (100 μl/well). Finally the fluorescence was measured using the Incucyte FLR software, the data were analyzed by the total green object integrated intensity (GCU×μm2×Well) of the imaging system IncuCyte HD (Essen BioScience). The fluorescence of Rosiglitazone is taken as 100% of glucose uptake, and the glucose uptake was calculated as (% Glucose uptake)=100(T−B)/(R−B), where T (treated) is the fluorescence of test substance-treated cells, B (Basal) is the fluorescence of 2-NBDG cells and […] is the fluorescence of cells treated with Rosiglitazone.

Structure (SMILES) | % Activation (NF-κB; TNFα = 100%) (NF-κB; 10 μM) [%] | RLU 1 (NF-κB; 10 μM) [RLU] | RLU 2 (NF-κB; 10 μM) [RLU] | RLU 3 (NF-κB; 10 μM) [RLU] | RLU MEAN (NF-κB; 10 μM) [RLU] | RLU specific (NF-κB; 10 μM) [RLU] | % Activation (NF-κB; TNFα = 100%) (NF-κB; 25 μM) [%] | RLU 1 (NF-κB; 25 μM) [RLU] | RLU 2 (NF-κB; 25 μM) [RLU] | RLU 3 (NF-κB; 25 μM) [RLU] | RLU MEAN (NF-κB; 25 μM) [RLU] | RLU specific (NF-κB; 25 μM) [RLU] | % Activation (STAT3; IFNγ = 100%) (STAT3; 25 μM) [%] | RLU 1 (STAT3; 25 μM) [RLU] | RLU 2 (STAT3; 25 μM) [RLU] | RLU 3 (STAT3; 25 μM) [RLU] | RLU MEAN (STAT3; 25 μM) [RLU] | RLU specific (STAT3; 25 μM) [RLU] | RLU 1 (STAT3; 50 μM) [RLU] | RLU 2 (STAT3; 50 μM) [RLU] | also measured
COc1ccc(-c2coc3cc(O[C@@H]4O[C@@H](C)[C@H](O)[C@@H](O)[C@H]4O)cc(O[C@@H]4O[C@@H](C)[C@H](O)[C@@H](O)[C@H]4O)c3c2=O)cc1 [BR1, Biochanin A-5,7-di-O-α-L-rhamnoside] | 170.3 | 259120 | 247590 | 229500 | 245403 | 222040 | 141.4 | 211660 | 208010 | 203720 | 207797 | 184433 | 110.41 | 8162 | 12819 | 11157 | 10713 | 8878 | 12336 | 11620 | % Activation (STAT3; IFNγ = 100%) (STAT3; 50 μM): 126.67%; RLU 3 (STAT3; 50 μM): 12104 RLU; RLU MEAN (STAT3; 50 μM): 12020 RLU; RLU specific (STAT3; 50 μM): 10185 RLU; % Glucose uptake (Rosiglitazone = 100%) (HaCaT cells; 25 μM): 44.0%; Mean (fluorescence) (HaCaT cells; 25 μM): 597246; Measure 1 (fluorescence) (HaCaT cells; 25 μM): 730362; Measure 2 (fluorescence) (HaCaT cells; 25 μM): 661244; Measure 3 (fluorescence) (HaCaT cells; 25 μM): 400131; RFU specific (HaCaT cells; 25 μM): 564160 RFU; % Glucose uptake (Rosiglitazone = 100%) (HaCaT cells; 50 μM): 56.4%; Mean (fluorescence) (HaCaT cells; 50 μM): 756509; Measure 1 (fluorescence) (HaCaT cells; 50 μM): 899548; Measure 2 (fluorescence) (HaCaT cells; 50 μM): 626443; Measure 3 (fluorescence) (HaCaT cells; 50 μM): 743535; RFU specific (HaCaT cells; 50 μM): 723423 RFU
CC1O[C@@H](Oc2cc(O[C@@H]3OC(C)[C@H](O)C(O)C3O)c3c(=O)cc(-c4ccccc4)oc3c2)C(O)C(O)[C@H]1O (stereo partly drawn) [CR1, Chrysin-di-5,7-O-α-L-rhamnoside] | 109.9 | 157870 | 169000 | 173010 | 166627 | 143263 | 120.8 | 175140 | 183630 | 183960 | 180910 | 157547 |  |  |  |  |  |  |  |  | % Glucose uptake (Rosiglitazone = 100%) (HaCaT cells; 25 μM): 48.3%; Mean (fluorescence) (HaCaT cells; 25 μM): 426161; Measure 1 (fluorescence) (HaCaT cells; 25 μM): 291406; Measure 2 (fluorescence) (HaCaT cells; 25 μM): 358114; Measure 3 (fluorescence) (HaCaT cells; 25 μM): 628963; RFU specific (HaCaT cells; 25 μM): 419847 RFU; % Glucose uptake (Rosiglitazone = 100%) (HaCaT cells; 50 μM): 52.6%; Mean (fluorescence) (HaCaT cells; 50 μM): 463245; Measure 1 (fluorescence) (HaCaT cells; 50 μM): 619992; Measure 2 (fluorescence) (HaCaT cells; 50 μM): 595330; Measure 3 (fluorescence) (HaCaT cells; 50 μM): 174412; RFU specific (HaCaT cells; 50 μM): 456931 RFU
CC1O[C@@H](Oc2cc(O)cc3oc(-c4ccccc4)cc(=O)c23)C(O)C(O)[C@H]1O (stereo partly drawn) [CR2, Chrysin-5-O-α-L-rhamnoside] | 101.7 | 156600 | 160140 | 151070 | 155937 | 132573 |  | 170390 | 179220 | 163490 | 171033 | 147670 |  |  |  |  |  |  |  |  | activity at 25 µM (NF-κB; 6 h, 25 μM, read-out: % Activation (NF-κB; TNFα = 100%)): 113%; % Glucose uptake (Rosiglitazone = 100%) (HaCaT cells; 25 μM): 47.2%; Mean (fluorescence) (HaCaT cells; 25 μM): 416681; Measure 1 (fluorescence) (HaCaT cells; 25 μM): 427937; Measure 2 (fluorescence) (HaCaT cells; 25 μM): 431593; Measure 3 (fluorescence) (HaCaT cells; 25 μM): 390512; RFU specific (HaCaT cells; 25 μM): 410367 RFU; % Glucose uptake (Rosiglitazone = 100%) (HaCaT cells; 50 μM): 106.5%; Mean (fluorescence) (HaCaT cells; 50 μM): 931673; Measure 1 (fluorescence) (HaCaT cells; 50 μM): 771478; Measure 2 (fluorescence) (HaCaT cells; 50 μM): 1100390; Measure 3 (fluorescence) (HaCaT cells; 50 μM): 923151; RFU specific (HaCaT cells; 50 μM): 925359 RFU
O=c1cc(-c2ccccc2)oc2cc(O)cc(O)c12 [Chrysin] | 313.0 | 301630 | 274240 | 303950 | 293273 | 256010 | 293.5 | 273410 | 272580 | 285980 | 277323 | 240060 | 164.78 | 28031 | 22367 | 17504 | 22634 | 20627 | 27912 | 3531 | % Activation (STAT3; IFNγ = 100%) (STAT3; 50 μM): 111.11%; RLU 3 (STAT3; 50 μM): 16304 RLU; RLU MEAN (STAT3; 50 μM): 15916 RLU; RLU specific (STAT3; 50 μM): 13908 RLU
COc1ccc(-c2cc(=O)c3c(O)cc(O)cc3o2)cc1O [Diosmetin] | 294.7 | 398660 | 411390 | 412940 | 407663 | 384300 | 327.9 | 448530 | 452660 | 451610 | 450933 | 427570 | 111.00 | 16337 | 14303 | 17066 | 15902 | 13895 | 9189 | 7751 | RLU 3 (STAT3; 50 μM): 7857 RLU; RLU MEAN (STAT3; 50 μM): 8266 RLU; RLU specific (STAT3; 50 μM): 6258 RLU; activity at 50 µM (STAT3; 6 h, 50 μM, read-out: % Activation (STAT3; IFNγ = 100%)): 50%
COc1cc(C2Oc3cc([C@H]4Oc5cc(O)cc(O)c5C(=O)[C@@H]4O)ccc3OC2CO)ccc1O (stereo partly drawn) [Silibinin] |  |  |  |  |  |  |  |  |  |  |  |  | 121.32 | 12389 | 11170 | 11210 | 11590 | 9755 | 12157 | 11885 | % Activation (STAT3; IFNγ = 100%) (STAT3; 50 μM): 120.55%; RLU 3 (STAT3; 50 μM): 10540 RLU; RLU MEAN (STAT3; 50 μM): 11527 RLU; RLU specific (STAT3; 50 μM): 9692 RLU
